ChEMBL document CHEMBL3627634, “Synthesis of novel benzohydrazone-oxadiazole hybrids as β-glucuronidase inhibitors and molecular modeling studies” (Bioorg Med Chem, 2015)

The molecules below were run against T1, Beta-glucuronidase (Bos taurus, UniProt A3KMY8) (assay: Inhibition of bovine liver beta-glucuronidase using p-nitrophenyl-beta-D-glucuronide as substrate assessed as p-nitrophenol formation after 30 mins by multiplate reader analysis). Conditions: not given; call rule not given here.
T1 sequence (A3KMY8 whole entry): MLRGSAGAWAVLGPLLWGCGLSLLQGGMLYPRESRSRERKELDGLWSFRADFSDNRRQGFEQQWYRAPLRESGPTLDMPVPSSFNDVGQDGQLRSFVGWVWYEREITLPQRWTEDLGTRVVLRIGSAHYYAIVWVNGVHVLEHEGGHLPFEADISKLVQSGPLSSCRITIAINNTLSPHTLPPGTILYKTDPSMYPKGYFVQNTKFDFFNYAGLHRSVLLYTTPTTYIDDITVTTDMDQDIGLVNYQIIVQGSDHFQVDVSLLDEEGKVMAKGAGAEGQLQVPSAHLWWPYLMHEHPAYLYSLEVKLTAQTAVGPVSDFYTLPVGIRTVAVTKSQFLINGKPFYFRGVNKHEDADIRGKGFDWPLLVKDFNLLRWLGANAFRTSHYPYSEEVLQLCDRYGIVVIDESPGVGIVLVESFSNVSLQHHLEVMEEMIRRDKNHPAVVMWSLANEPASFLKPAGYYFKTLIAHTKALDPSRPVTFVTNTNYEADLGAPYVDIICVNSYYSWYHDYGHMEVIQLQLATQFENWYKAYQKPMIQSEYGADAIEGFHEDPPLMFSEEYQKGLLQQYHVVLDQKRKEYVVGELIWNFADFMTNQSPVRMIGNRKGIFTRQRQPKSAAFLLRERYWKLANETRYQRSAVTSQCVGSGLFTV
With Cc1ccccc1/C=N/NC(=O)c1ccc(-c2nnc(-c3ccccc3O)o2)cc1 the IC50 was “Not Active”. In the case of Cc1ccc(/C=N/NC(=O)c2ccc(-c3nnc(-c4ccccc4O)o3)cc2)cc1, the IC50 is reported as “Not Active”. For O=C(N/N=C/c1ccccc1[N+](=O)[O-])c1ccc(-c2nnc(-c3ccccc3O)o2)cc1, the IC50 was “Not Active”. O=C(N/N=C/c1cccc(Cl)c1)c1ccc(-c2nnc(-c3ccccc3O)o2)cc1 was tested, and the IC50 was “Not Active”. With O=C(N/N=C/c1ccc(F)cc1)c1ccc(-c2nnc(-c3ccccc3O)o2)cc1 the IC50 was “Not Active”. Cc1cccc(/C=N/NC(=O)c2ccc(-c3nnc(-c4ccccc4O)o3)cc2)c1 was tested, and the IC50 was “Not Active”. In the case of O=C(N/N=C/c1ccccc1Cl)c1ccc(-c2nnc(-c3ccccc3O)o2)cc1, the IC50 is reported as “Not Active”. In the case of O=C(N/N=C/c1ccncc1)c1ccc(-c2nnc(-c3ccccc3O)o2)cc1, the IC50 is reported as “Not Active”. In the case of O=C(N/N=C/c1cccc(F)c1)c1ccc(-c2nnc(-c3ccccc3O)o2)cc1, the IC50 is reported as “Not Active”. With COc1ccccc1/C=N/NC(=O)c1ccc(-c2nnc(-c3ccccc3O)o2)cc1 the IC50 was “Not Active”. For O=C(N/N=C/c1cccnc1)c1ccc(-c2nnc(-c3ccccc3O)o2)cc1, the IC50 was “Not Active”.

Same assay, conditions: read-out: IC50
Molecule O=C(N/N=C/c1ccccc1F)c1ccc(-c2nnc(-c3ccccc3O)o2)cc1 has an IC50 of 108 µM. O=C(N/N=C/c1ccc(O)cc1)c1ccc(-c2nnc(-c3ccccc3O)o2)cc1 gave an IC50 of 18.5 µM. O=C(N/N=C/c1cccc([N+](=O)[O-])c1)c1ccc(-c2nnc(-c3ccccc3O)o2)cc1 showed an IC50 of 64.1 µM. For O=C(N/N=C/c1ccccn1)c1ccc(-c2nnc(-c3ccccc3O)o2)cc1, the IC50 was 42.3 µM. With O=C(N/N=C/c1ccc(Cl)cc1)c1ccc(-c2nnc(-c3ccccc3O)o2)cc1 the IC50 was 86.1 µM. With O=C(N/N=C/c1cc(O)ccc1O)c1ccc(-c2nnc(-c3ccccc3O)o2)cc1 the IC50 was 15.1 µM. With O=C(N/N=C/c1cccc(O)c1)c1ccc(-c2nnc(-c3ccccc3O)o2)cc1 the IC50 was 34.5 µM. In the case of O=C(N/N=C/c1ccc(O)c(O)c1)c1ccc(-c2nnc(-c3ccccc3O)o2)cc1, the IC50 is reported as 29.2 µM. Molecule COc1ccc(O)c(/C=N/NC(=O)c2ccc(-c3nnc(-c4ccccc4O)o3)cc2)c1 has an IC50 of 88.1 µM. O=C(N/N=C/c1ccc([N+](=O)[O-])cc1)c1ccc(-c2nnc(-c3ccccc3O)o2)cc1 gave an IC50 of 44.2 µM. Molecule COc1ccc(/C=N/NC(=O)c2ccc(-c3nnc(-c4ccccc4O)o3)cc2)cc1O has an IC50 of 7.14 µM. O=C(N/N=C/c1c(O)cc(O)cc1O)c1ccc(-c2nnc(-c3ccccc3O)o2)cc1 was tested, and the IC50 was 82.2 µM. O=C(N/N=C/c1cc(O)c(O)cc1O)c1ccc(-c2nnc(-c3ccccc3O)o2)cc1 gave an IC50 of 21.1 µM. In the case of O=C(N/N=C/c1ccccc1O)c1ccc(-c2nnc(-c3ccccc3O)o2)cc1, the IC50 is reported as 91.4 µM.
